Data taken from patent publication US20240208956A1, “1,3,4-OXADIAZOLE THIOCARBONYL COMPOUNDS AS HISTONE DEACETYLASE 6 INHIBITOR, AND PHARMACEUTICAL COMPOSITION COMPRISING THE SAME” (CHONG KUN DANG PHARMACEUTICAL CORP., priority 2021, published 2024).
pIC50: −log10 of the molar value.

Tests used:
[1] = molecular target: HDAC1 (Homo sapiens (Human), UniProt Q13547); experiment: HDAC enzyme activity inhibition (in vitro), HDAC1 Fluorimetric Drug Discovery Assay Kit; type: biochemical; conditions: samples at 100, 1000 and 10000 nM; 37° C. 60 minutes; fluorescence Ex 390 nm, Em 460 nm
Sequence of HDAC1 (Q13547 whole entry): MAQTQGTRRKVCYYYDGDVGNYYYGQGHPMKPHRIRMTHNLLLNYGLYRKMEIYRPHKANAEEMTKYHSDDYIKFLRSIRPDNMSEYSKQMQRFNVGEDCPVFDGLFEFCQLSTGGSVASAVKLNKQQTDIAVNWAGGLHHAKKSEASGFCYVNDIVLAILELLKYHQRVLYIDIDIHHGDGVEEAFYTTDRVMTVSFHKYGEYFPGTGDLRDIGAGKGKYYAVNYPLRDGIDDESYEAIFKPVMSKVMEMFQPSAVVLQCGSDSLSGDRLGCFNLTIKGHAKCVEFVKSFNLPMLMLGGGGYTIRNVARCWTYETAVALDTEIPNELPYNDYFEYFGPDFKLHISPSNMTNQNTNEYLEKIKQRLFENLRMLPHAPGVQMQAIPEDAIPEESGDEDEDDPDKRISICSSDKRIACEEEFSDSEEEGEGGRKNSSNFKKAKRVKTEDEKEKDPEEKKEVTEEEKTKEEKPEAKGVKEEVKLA
Procedure: Experimental Example 1. Confirmation of HDAC Enzyme Activity Inhibition (In Vitro)
(§1) An HDAC enzyme inhibitory capacity of test material was measured by using HDAC1 Fluorimetric Drug Discovery Assay Kit (Enzolifesciences: BML-AK511) and HDAC6 human recombinant (Calbiochem: 382180). For a HDAC1 assay, samples were treated at a concentration of 100 nM, 1000 nM and 10000 nM. For an HDAC6 assay, samples were treated at a concentration of 0.1 nM, 1 nM, 10 nM, 100 nM and 1000 nM. After the sample treatment, a reaction was continued at 37° C. for 60 minutes, treated with a developer, and subjected to reaction at 37° C. for 30 minutes, after which fluorescence intensity (Ex 390 nm, Em 460 nm) was measured by using FlexStation3 (Molecular device). For final result values, each […] value was calculated with GraphPad Prism 4.0 program.

[2] = molecular target: HDAC6 human recombinant (Homo sapiens (Human), UniProt Q9UBN7); experiment: HDAC enzyme activity inhibition (in vitro), HDAC6 fluorimetric assay; type: biochemical; conditions: samples at 0.1-1000 nM; 37° C. 60 minutes; fluorescence Ex 390 nm, Em 460 nm
Sequence of HDAC6 human recombinant (Q9UBN7 whole entry): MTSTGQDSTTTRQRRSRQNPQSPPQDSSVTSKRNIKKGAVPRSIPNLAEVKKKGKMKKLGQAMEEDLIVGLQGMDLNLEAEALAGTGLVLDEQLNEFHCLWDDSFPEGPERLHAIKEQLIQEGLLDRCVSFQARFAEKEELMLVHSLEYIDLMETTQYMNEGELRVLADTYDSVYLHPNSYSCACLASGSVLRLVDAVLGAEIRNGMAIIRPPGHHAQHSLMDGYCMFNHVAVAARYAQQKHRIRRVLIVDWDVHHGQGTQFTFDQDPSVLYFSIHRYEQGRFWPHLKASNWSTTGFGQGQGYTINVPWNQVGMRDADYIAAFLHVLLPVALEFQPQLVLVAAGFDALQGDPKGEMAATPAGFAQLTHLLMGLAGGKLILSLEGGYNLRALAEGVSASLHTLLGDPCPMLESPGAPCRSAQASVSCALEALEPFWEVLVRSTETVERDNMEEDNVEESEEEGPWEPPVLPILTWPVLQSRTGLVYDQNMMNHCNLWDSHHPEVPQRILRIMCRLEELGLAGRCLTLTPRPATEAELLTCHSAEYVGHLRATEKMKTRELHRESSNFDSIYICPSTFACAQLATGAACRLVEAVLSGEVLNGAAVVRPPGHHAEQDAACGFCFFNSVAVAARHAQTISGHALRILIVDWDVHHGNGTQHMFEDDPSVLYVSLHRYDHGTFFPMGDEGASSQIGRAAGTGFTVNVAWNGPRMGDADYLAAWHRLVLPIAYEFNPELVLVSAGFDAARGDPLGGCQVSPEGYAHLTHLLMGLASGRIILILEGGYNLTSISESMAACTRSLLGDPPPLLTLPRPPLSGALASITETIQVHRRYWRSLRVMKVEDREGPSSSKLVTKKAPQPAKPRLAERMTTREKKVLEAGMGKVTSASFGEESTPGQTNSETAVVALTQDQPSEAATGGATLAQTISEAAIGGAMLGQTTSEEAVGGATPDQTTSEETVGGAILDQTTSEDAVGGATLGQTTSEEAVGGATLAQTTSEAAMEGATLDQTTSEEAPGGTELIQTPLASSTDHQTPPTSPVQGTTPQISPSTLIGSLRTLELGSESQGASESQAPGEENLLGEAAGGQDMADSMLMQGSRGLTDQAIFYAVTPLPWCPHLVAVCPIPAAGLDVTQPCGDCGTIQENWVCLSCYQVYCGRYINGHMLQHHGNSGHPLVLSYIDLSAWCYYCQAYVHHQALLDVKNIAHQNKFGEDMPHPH
Procedure: Confirmation of HDAC Enzyme Activity Inhibition (In Vitro)
as §1

| pIC50 [1] | pIC50 [2] | SMILES |
| --- | --- | --- |
| < 5.00 | 7.11 | CC(C)N1CC2(CN(C(=S)N(Cc3ccc(-c4nnc(C(F)F)o4)cc3F)c3ccc(F)c(Cl)c3)C2)C1 [Compound 28, N-(3-chloro-4-fluorophenyl)-N-(4-(5-(difluoromethyl)-1,3,4-oxadiazol-2-yl)-2-fluorobenzyl)-6-isopropyl-2,6-diazaspiro[3.3]heptan-2-carbothioamide] |
| < 5.00 | 7.46 | CC(=O)N1CC2(C1)CN(C(=S)N(Cc1ccc(-c3nnc(C(F)F)o3)cc1F)c1ccc(F)c(F)c1)C2 [Compound 33, 6-acetyl-N-(4-(5-(difluoromethyl)-1,3,4-oxadiazol-2-yl)-2-fluorobenzyl)-N-(3,4-difluorophenyl)-2,6-diazaspiro[3.3]heptan-2-carbothioamide] |
| < 5.00 | 7.33 | Fc1ccc(N(Cc2ccc(-c3nnc(C(F)F)o3)cc2F)C(=S)N2CC3(C2)CN(C2COC2)C3)cc1F [Compound 34, N-(4-(5-(difluoromethyl)-1,3,4-oxadiazol-2-yl)-2-fluorobenzyl)-N-(3,4-difluorophenyl)-6-(oxetan-3-yl)-2,6-diazaspiro[3.3]heptan-2-carbothioamide] |
| < 5.00 | 7.37 | CN1CC2(C1)CN(C(=S)N(Cc1ccc(-c3nnc(C(F)F)o3)cc1F)c1cccc(F)c1)C2 [Compound 36, N-(4-(5-(difluoromethyl)-1,3,4-oxadiazol-2-yl)-2-fluorobenzyl)-N-(3-fluorophenyl)-6-methyl-2,6-diazaspiro[3.3]heptan-2-carbothioamide] |
| < 5.00 | 7.10 | CN1CC2(CCN(C(=S)N(Cc3ccc(-c4nnc(C(F)F)o4)cc3F)c3ccc(F)c(F)c3)CC2)C1 [Compound 44, N-(4-(5-(difluoromethyl)-1,3,4-oxadiazol-2-yl)-2-fluorobenzyl)-N-(3,4-difluorophenyl)-2-methyl-2,7-diazaspiro[3.5]nonan-7-carbothioamide] |
| < 5.00 | 6.71 | Fc1ccc(N(Cc2ccc(-c3nnc(C(F)F)o3)cc2F)C(=S)N2CCC3(CC2)CN(C2COC2)C3)cc1F [Compound 45, N-(4-(5-(difluoromethyl)-1,3,4-oxadiazol-2-yl)-2-fluorobenzyl)-N-(3,4-difluorophenyl)-2-(oxetan-3-yl)-2,7-diazaspiro[3.5]nonan-7-carbothioamide] |
| < 5.00 | 7.55 | CN1CCC2(CC1)CN(C(=S)N(Cc1ccc(-c3nnc(C(F)F)o3)cc1F)c1ccc(F)c(F)c1)C2 [Compound 46, N-(4-(5-(difluoromethyl)-1,3,4-oxadiazol-2-yl)-2-fluorobenzyl)-N-(3,4-difluorophenyl)-7-methyl-2,7-diazaspiro[3.5]nonan-2-carbothioamide] |

The remaining lines, values behind:

| SMILES | pIC50 [1] | pIC50 [2] |
| --- | --- | --- |
| CN1CC2(C1)CN(C(=S)N(Cc1ccc(-c3nnc(C(F)F)o3)cc1)c1ccc(F)c(Cl)c1)C2 [Compound 26, N-(3-chloro-4-fluorophenyl)-N-(4-(5-(difluoromethyl)-1,3,4-oxadiazol-2-yl)benzyl)-6-methyl-2,6-diazaspiro[3.3]heptan-2-carbothioamide] | < 5.00 | 7.05 |
| Fc1ccc(N(Cc2ccc(-c3nnc(C(F)F)o3)cc2)C(=S)N2CC3(C2)CN(C2COC2)C3)cc1Cl [Compound 27, N-(3-chloro-4-fluorophenyl)-N-(4-(5-(difluoromethyl)-1,3,4-oxadiazol-2-yl)benzyl)-6-(oxetan-3-yl)-2,6-diazaspiro[3.3]heptan-2-carbothioamide] | < 5.00 | 6.95 |
| CC(C)N1CC2(CN(C(=S)N(Cc3ccc(-c4nnc(C(F)F)o4)cc3)c3ccc(F)c(Cl)c3)C2)C1 [Compound 29, N-(3-chloro-4-fluorophenyl)-N-(4-(5-(difluoromethyl)-1,3,4-oxadiazol-2-yl)benzyl)-6-isopropyl-2,6-diazaspiro[3.3]heptan-2-carbothioamide] | < 5.00 | 7.15 |
| CN1CC2(C1)CN(C(=S)N(Cc1ccc(-c3nnc(C(F)F)o3)cc1)c1ccc(F)c(F)c1)C2 [Compound 30, N-(4-(5-(difluoromethyl)-1,3,4-oxadiazol-2-yl)benzyl)-N-(3,4-difluorophenyl)-6-methyl-2,6-diazaspiro[3.3]heptan-2-carbothioamide] | < 5.00 | 7.62 |
| CC(C)N1CC2(CN(C(=S)N(Cc3ccc(-c4nnc(C(F)F)o4)cc3)c3ccc(F)c(F)c3)C2)C1 [Compound 31, N-(4-(5-(difluoromethyl)-1,3,4-oxadiazol-2-yl)benzyl)-N-(3,4-difluorophenyl)-6-isopropyl-2,6-diazaspiro[3.3]heptan-2-carbothioamide] | < 5.00 | 7.46 |
| Fc1ccc(N(Cc2ccc(-c3nnc(C(F)F)o3)cc2)C(=S)N2CC3(C2)CN(C2COC2)C3)cc1F [Compound 32, N-(4-(5-(difluoromethyl)-1,3,4-oxadiazol-2-yl)benzyl)-N-(3,4-difluorophenyl)-6-(oxetan-3-yl)-2,6-diazaspiro[3.3]heptan-2-carbothioamide] | < 5.00 | 7.35 |
| CC(C)N1CC2(CN(C(=S)N(Cc3ccc(-c4nnc(C(F)F)o4)cc3F)c3cccc(F)c3)C2)C1 [Compound 37, N-(4-(5-(difluoromethyl)-1,3,4-oxadiazol-2-yl)-2-fluorobenzyl)-N-(3-fluorophenyl)-6-isopropyl-2,6-diazaspiro[3.3]heptan-2-carbothioamide] | < 5.00 | 7.17 |
| Fc1cccc(N(Cc2ccc(-c3nnc(C(F)F)o3)cc2F)C(=S)N2CC3(C2)CN(C2COC2)C3)c1 [Compound 38, N-(4-(5-(difluoromethyl)-1,3,4-oxadiazol-2-yl)-2-fluorobenzyl)-N-(3-fluorophenyl)-6-(oxetan-3-yl)-2,6-diazaspiro[3.3]heptan-2-carbothioamide] | < 5.00 | 7.29 |
| CN1C[C@@H]2C[C@H]1CN2C(=S)N(Cc1ccc(-c2nnc(C(F)F)o2)cc1F)c1ccc(F)cc1 [Compound 39, (1S,4S)—N-(4-(5-(difluoromethyl)-1,3,4-oxadiazol-2-yl)-2-fluorobenzyl)-N-(4-fluorophenyl)-5-methyl-2,5-diazabicyclo[2.2.1]heptan-2-carbothioamide] | < 5.00 | 7.52 |
| CC(C)N1C[C@@H]2C[C@H]1CN2C(=S)N(Cc1ccc(-c2nnc(C(F)F)o2)cc1F)c1ccc(F)cc1 [Compound 40, (1S,4S)—N-(4-(5-(difluoromethyl)-1,3,4-oxadiazol-2-yl)-2-fluorobenzyl)-N-(4-fluorophenyl)-5-isopropyl-2,5-diazabicyclo[2.2.1]heptan-2-carbothioamide] | < 5.00 | 7.26 |
| Fc1ccc(N(Cc2ccc(-c3nnc(C(F)F)o3)cc2F)C(=S)N2C[C@@H]3C[C@H]2CN3C2COC2)cc1 [Compound 41, (1S,4S)—N-(4-(5-(difluoromethyl)-1,3,4-oxadiazol-2-yl)-2-fluorobenzyl)-N-(4-fluorophenyl)-5-(oxetan-3-yl)-2,5-diazabicyclo[2.2.1]heptan-2-carbothioamide] | < 5.00 | 7.14 |
| Fc1ccc(N(Cc2ccc(-c3nnc(C(F)F)o3)cc2F)C(=S)N2C[C@@H]3C[C@H]2CN3C2COC2)cc1F [Compound 43, (1S,4S)—N-(4-(5-(difluoromethyl)-1,3,4-oxadiazol-2-yl)-2-fluorobenzyl)-N-(3,4-difluorophenyl)-5-(oxetan-3-yl)-2,5-diazabicyclo[2.2.1]heptan-2-carbothioamide] | < 5.00 | 7.11 |
